US20130102680A1, “METHODS FOR SELECTIVE SILENCING OF SENSORY NEURONS” (CORNELL UNIVERSITY, priority 2011, published 2013)

Experiments:
rat TRPV1 [1] = biological target: T1, rat TRPV1 (Rattus norvegicus, UniProt O35433); test: YO-PRO-1 uptake (imaging / plate-reader) in TRPV1-expressing cells; assay type: cell-based; conditions: for fold decrease of t1/2 to maximal YO-PRO-1 fluorescence, pretreated vs not pretreated cells: 50 μM agonist pre-incubated two hours then removed, 5 μM YO-PRO-1, n=3; for agonist-induced YO-PRO-1 uptake: extracellular application
T1 construct: expressed in transfected cells
Method: Human embryonic kidney (HEK) 293 cells stably expressing rat TRPV1 were grown in DMEM/F12 with 10% newborn calf serum and antibiotics and cultured in a 5% CO2 aerated incubator at 37° C. Cells were trypsinized and plated on 96-well plates or matrix-coated coverslips for Ca^2+ imaging, YO-PRO-1 imaging, plate-reader assays, or electrophysiological recording. Calcium imaging, fluorescent dye uptake assays, and electrophysiological experiments were all performed 24-72 hours after plating.
Cells were plated in 96-well plates to near confluence. Images were acquired at a rate of 1 frame per 15 sec. The fields were illuminated for 2 sec for each frame. The fluorescent intensity was measured at the emission wavelength of 510/20 nm. 2× concentration of agonists and 10 μM YO-PRO-1 were mixed and added at equal volume to a bath solution with the same electrolyte composition except omitting CaCl2.
TRPV1 cell lines were passed into 96-well plate, grown to confluence, and assayed in a physiological Ringer solution. 50 μl of solution as used for YO-PRO-1 imaging with agonists of various concentrations was added to each well. Fluorescence intensity (485-nm excitation, 516-nm emission) was monitored by Multi-detection Microplate Reader (BioTek). For normalization, cells were fixed by 5% PFA at the end of experiments and counted total fluorescence from each well after adding digitonin solution (Assay Designs) with 5 μM YO-PRO-1.

rat TRPV1 [2] = biological target: T1, rat TRPV1; test: Ca^2+ imaging (Fura-2) in HEK293 cells stably expressing rat TRPV1; assay type: cell-based; conditions: for intracellular Ca^2+ level on extracellular application: ratiometric fura-2 imaging
rTRPV1 Y511A = biological target: T2, rTRPV1 Y511A (Rattus norvegicus, UniProt O35433, Y511A); test: YO-PRO-1 entry in HEK cells expressing rTRPV1 Y511A; assay type: cell-based
T2 construct: expressed in transfected cells; host or cells: HEK cells
Method: Cells were plated in 96-well plates to near confluence. Images were acquired at a rate of 1 frame per 15 sec. The fields were illuminated for 2 sec for each frame. […] TRPV1 cell lines were passed into 96-well plate, grown to confluence, and assayed in a physiological Ringer solution. 50 μl of solution as used for YO-[MUT] imaging with agonists of various concentrations was added to each well. Fluorescence intensity (485-nm excitation, 516-nm emission) was monitored by Multi-detection Microplate Reader (BioTek). For normalization, cells were fixed by 5% PFA at the end of experiments and counted total fluorescence from each well after adding digitonin solution (Assay Designs) with 5 μM YO-[MUT].

rat TRPV1 [3] = biological target: T1, rat TRPV1; test: Electrophysiology of membrane patches from HEK cells expressing rat TRPV1; assay type: cell-based
[4] = system: voltage gated Na+ channels; test: Neuronal Na+ currents after cap-ET and/or QX-314 loading, whole-cell recording; conditions: PAO or cap-ET alone (10 μM), then 5 mM QX-314

T1 sequence (O35433 whole entry): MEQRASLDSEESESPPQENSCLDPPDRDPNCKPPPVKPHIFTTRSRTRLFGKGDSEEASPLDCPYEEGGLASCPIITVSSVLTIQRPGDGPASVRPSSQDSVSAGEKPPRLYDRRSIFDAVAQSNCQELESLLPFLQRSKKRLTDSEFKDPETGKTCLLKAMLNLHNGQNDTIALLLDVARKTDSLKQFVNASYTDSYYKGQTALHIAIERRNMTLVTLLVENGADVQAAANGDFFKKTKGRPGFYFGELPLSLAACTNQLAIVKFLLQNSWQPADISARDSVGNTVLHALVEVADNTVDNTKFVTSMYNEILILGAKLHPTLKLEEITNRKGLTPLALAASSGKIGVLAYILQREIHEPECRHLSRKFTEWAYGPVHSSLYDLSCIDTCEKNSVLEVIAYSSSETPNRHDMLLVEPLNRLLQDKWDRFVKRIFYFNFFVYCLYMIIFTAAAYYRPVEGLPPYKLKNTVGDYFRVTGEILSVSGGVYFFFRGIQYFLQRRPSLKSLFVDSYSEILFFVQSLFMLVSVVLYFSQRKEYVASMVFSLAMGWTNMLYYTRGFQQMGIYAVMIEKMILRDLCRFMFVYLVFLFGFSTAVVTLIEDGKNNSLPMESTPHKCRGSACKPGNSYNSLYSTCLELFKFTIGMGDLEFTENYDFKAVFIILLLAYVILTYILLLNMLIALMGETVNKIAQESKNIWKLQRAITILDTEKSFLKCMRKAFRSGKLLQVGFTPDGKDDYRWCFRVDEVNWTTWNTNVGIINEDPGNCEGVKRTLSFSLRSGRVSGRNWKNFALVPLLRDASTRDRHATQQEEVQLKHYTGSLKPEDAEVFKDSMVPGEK
T2 sequence (O35433 whole entry Y511A): as the sequence (O35433 whole entry) above, with Y511A counted along it

## CCCC(=O)O[C@@H]1[C@@H](C)[C@@]2(O)[C@@H](C=C(CO)C[C@]3(O)C(=O)C(C)=C[C@@H]23)[C@@H]2C(C)(C)[C@]12OC(=O)CCC [PDBu]
Rat TRPV1 [1]
  effect on potency of capsaicin or cap-ET for YO-PRO-1 uptake: increased the potency

## N.N.N.N.N.N.N.N.N.N.N.N.N.N.[Cl-].[Cl-].[Cl-].[Cl-].[Cl-].[Cl-].[O-2].[O-2].[Ru+3].[Ru+3].[Ru+4] [RR, ruthenium red]
Rat TRPV1 [1]; 10 μM
  effect on capsaicin-mediated YO-PRO-1 entry: effectively suppressed YO-PRO-1 entry

## CC[N+](CC)(CC)CCOc1ccc(CNC(=O)CCCC/C=C/C(C)C)cc1OC [cap-ETEA, capsaicin O-tetra-ethylammonium acetate]
Rat TRPV1 [2]
  intracellular Ca^2+ level on extracellular application: effectively raised intracellular Ca^2+ levels

## COc1cc(CNC(=O)CCCC/C=C/C(C)C)ccc1O [capsaicin]
Rat TRPV1 [2]
  intracellular Ca^2+ level on extracellular application: large intracellular Ca^2+ rise
rTRPV1 Y511A
  YO-PRO-1 transport via rTRPV1 Y511A mutant: failed to elicit YO-PRO-1 transport
Rat TRPV1 [1]
  fold decrease of t1/2 to maximal YO-PRO-1 fluorescence, pretreated vs not pretreated cells: 1.14±0.04 fold
  agonist-induced YO-PRO-1 uptake: induced YO-PRO-1 uptake

## C[n+]1c(C=C2C=CN(CCC[N+](C)(C)C)c3ccccc32)oc2ccccc21 [YO-PRO-1, reference compound]
Rat TRPV1 [3]; 5 μM, inside-out patch
  block of TRPV1 currents evoked by 10 μM capsaicin: reversibly blocked

## COc1cc(CNC(=O)CCCC/C=C/C(C)C)ccc1OCC[N+](C)(C)C [cap-ET, capsaicin O-ethyl (trimethyl-ammonium) acetate]
other
  hydrophilicity relative to capsaicin, based on water/octanol partitioning: over 300 fold
Rat TRPV1 [3]
  Icap-ET/Icap (ionic current relative to capsaicin), PAO-sensitized TRPV1: 3.0±0.9%
Rat TRPV1 [3]; 100 μM cap-ET
  electric current induced, TRPV1 sensitized by 10 μM PAO: recordable but small current
Rat TRPV1 [3]; 100 μM cap-ET co-applied with 30 μM capsaicin, from outside or inside
  block of capsaicin-induced TRPV1 currents: strong voltage-dependent block
Rat TRPV1 [3]; 100 μM cap-ET, compared to 30 μM capsaicin
  electric current induced on cytoplasmic side of inside-out patch: barely detectable electric current
Rat TRPV1 [2]
  rank of potency and efficacy in Ca^2+ signals among the three charged capsaicinoids: most potent and efficacious among the three
  intracellular Ca^2+ level on extracellular application: effectively raised intracellular Ca^2+ levels
[4]
  Na+ current density after QX-314, agent alone: comparable to cells not exposed to QX-314
Rat TRPV1 [1]
  fold decrease of t1/2 to maximal YO-PRO-1 fluorescence, pretreated vs not pretreated cells: 5.37±0.99 fold
  agonist-induced YO-PRO-1 uptake: induced YO-PRO-1 uptake
